Reference: the supplement of paper PMC3974653
Counter-ions that a name gives are not always drawn.

System: MTT (mouse pheochromocytoma)
Test: IC50 of cell viability (ATP content)
Conditions: (24 or 48 h)
Summary of the method: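 Library compounds in DMSO (23 nl by pintool, 8 concentrations, final 0.5 nM to 46 µM) were applied for 24 or 48 hrs to MTT mouse pheochromocytoma cells that had been cultured overnight at 37°C, 5% CO2 in white 1536-well plates. Cell viability was measured by CellTiter-Glo ATP luminescence, read after 15 minutes, with positive-control wells set at 100% and DMSO wells at 0%. A four-parameter logistic fit of the normalised signals yielded the IC50.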

IC50 of cell viability [µM] | Compound
> 46 | OCc1ccccc1 [Benzyl alcohol]
> 46 | CN(C)CCCN1c2ccccc2CCc2ccc(Cl)cc21 [CLOMIPRAMINE]
> 46 | N=C(N)c1ccc(OCCCOc2ccc(C(=N)N)cc2Br)c(Br)c1 [Dibromopropamidine Dihydrochloride]
> 46 | CN(C)c1ccc(/N=N/S(=O)(=O)[O-])cc1 [Fenaminosulf]
> 46 | CN1C[C@@H]2c3ccccc3Oc3ccc(Cl)cc3[C@H]2C1 [Asenapine]
> 46 | OCCOCCN1CCN(C(c2ccccc2)c2ccc(Cl)cc2)CC1 (stereo not drawn) [Tranquizine]
> 46 | C/C(=C(/CCOC(=O)c1ccccc1)SS/C(CCOC(=O)c1ccccc1)=C(\C)N(C=O)Cc1cnc(C)nc1N)N(C=O)Cc1cnc(C)nc1N [Bisbentiamine]
> 46 | C[C@H](N[C@@H](C)COc1ccccc1)[C@H](O)c1ccc(O)cc1 [Isoxsuprine hydrochloride]
> 46 | CC(C)(C)NC(=O)[C@@H]1CC[C@@H]2[C@@H]3CC[C@@H]4NC(=O)\C=C/[C@@]4(C)[C@H]3CC[C@@]12C [Finasteride]
> 46 | CC[S+](=O)([O-])CCn1c([N+](=O)[O-])cnc1C [Tinidazole]
> 46 | CC(C)=CCOc1ccc(/C=C/C(=O)c2ccc(OCC=C(C)C)cc2OCC(=O)O)cc1 [Sofalcone]
> 46 | Cc1cc(OI)c(C(C)C)cc1-c1cc(C(C)C)c(OI)cc1C [THYMOL IODIDE]
> 46 | CC(=O)OCC[N+](C)(C)C [Acetylcholine chloride]
> 46 | C[C@]12C=CC(=O)C=C1[C@@H](F)C[C@@H]1[C@@H]2[C@@H](O)C[C@@]2(C)[C@H]1CC[C@]2(O)C(=O)CO [Fluprednisolone]
> 46 | Nc1ccc([S+](=O)([O-])Nc2ccc(Cl)nn2)cc1 [Sulfachloropyridazine]
> 46 | COC(=O)[C@@H]1[C@H]2C[C@H]3c4[nH]c5cc(OC)ccc5c4CCN3C[C@@H]2C[C@@H](OC(=O)/C=C\c2cc(OC)c(OC)c(OC)c2)[C@@H]1OC [Rescinnamin]
> 46 | COC(=O)c1ccccc1C(=O)c1ccc(OCCN2CCCCC2)cc1 [Pitofenona]
> 46 | O=P([O-])(O)C(O)(Cc1cccnc1)P(=O)([O-])O [Acide risedronique]
> 46 | COC1=C(OC(F)F)C=CC(=C1)C/2=N/NC(=O)/C=C2 [Zardaverine]
> 46 | NCC[C@H](O)C(=O)N[C@@H]1C[C@H](N)[C@@H](O[C@H]2O[C@H](CN)CC[C@H]2N)[C@H](O)[C@H]1O[C@H]1O[C@H](CO)[C@@H](O)[C@H](N)[C@H]1O [ARBEKACIN SULFATE]
> 46 | C[C@]12CC[C@H]3c4ccc(O)cc4CC[C@@H]3[C@H]1CC[C@@H]2OP(=O)(O)O [Estradiol phosphate]
> 46 | CCC(=O)c1c(O)cc(O)cc1O [FLOPROPIONE]
> 46 | CCCCOc1ccc(C(=O)CCN2CCCCC2)cc1 [Dyclonine hydrochloride]
> 46 | CCOC(=O)O[C@@]1(CC[C@@H]2[C@@H]3CC\C4=C\C(=O)\C=C/[C@@]4(C)[C@H]3[C@H](O)C[C@@]12C)C(=O)COC(=O)CC [Prednicarbate]
> 46 | C(=C\c1ccncc1)/c1ccccc1 [STYRYLPYRIDINIUM CHLORIDE]
> 46 | N[C@@H](Cc1ccc(O)cc1)C(=O)O [TYROSINE]

IC50 of cell viability [µM] | Compound
> 46 | CC(C)(C)NC[C@H](O)CSc1nc(-c2ccc(C(N)=O)s2)cs1 [AROTINOLOL HYDROCHLORIDE]
> 46 | CCN(CC)CCNC(=O)c1ccc(N)cc1 [PROCAINAMIDE]
> 46 | C1CC[N@]2C[C@@H]3C[C@@H](CN4CCCC[C@H]34)[C@H]2C1 [Sparteine (-)]
> 46 | Oc1c(I)cc(Cl)c2cccnc12 [Iodochlorohydroxyquinoline]
> 46 | COc1ccc2c(c1)N(C[C@@H](C)CN(C)C)c1ccccc1S2 [Methotrimeprazine maleat salt]
> 46 | Cc1cc(C)c(/C=C2\C(=O)Nc3ccccc32)[nH]1 [SEMAXANIBUM]
> 46 | O=C(NCCc1c[nH]c2ccccc12)c1cccnc1 [NICOTREDOLUM]
> 46 | O=C(O)/C=C\c1ccc(Cn2ccnc2)cc1 [Ozagrel hydrochloride]
> 46 | CC(C)NCC(O)COc1ccc(COCCOC(C)C)cc1 (stereo not drawn) [Bisoprolol hemifumarate salt]
> 46 | OCCOC[C@H]1O[C@H](OCCO)[C@H](OCCO)[C@@H](OCCO)[C@@H]1OCCO.OC[C@H]1O[C@H](O)[C@H](O)[C@@H](O)[C@@H]1O [PENTASTARCH]
> 46 | C#C[C@]1(O)CC[C@H]2[C@@H]3CCC4=Cc5oncc5C[C@]4(C)[C@H]3CC[C@@]21C [Danazol]
> 46 | COc1cc2c(cc1OC)[C@@H](Cc1cc(OC)c(OC)c(OC)c1)[N+](C)(CCCOC(=O)CC/C=C/CCC(=O)OCCC[N+]1(C)CCc3cc(OC)c(OC)cc3[C@H]1Cc1cc(OC)c(OC)c(OC)c1)CC2 (stereo partly drawn) [MIVACURIUM CHLORIDE]
> 46 | CC1(C)C2CC[C@]1(C)[C@@H](O)C2 [BORNEOL]
> 46 | N[S+](=O)([O-])c1cc2c(cc1C(F)(F)F)N[C@H](Cc1ccccc1)N[S+]2(=O)[O-] [Bendroflumethiazide]
> 46 | CC(=O)N[C@@H](CC(=O)O)C(=O)N[C@@H](CCC(=O)O)C(=O)O [SPAGLUMIC ACID]
> 46 | C[C@]\12CCC(=O)\C=C1CC[C@H]3[C@@H]4CC[C@](O)(C(=O)COC(=O)CCC(O)=O)[C@@]4(C)C[C@H](O)[C@H]23 [Hydrocortisone 21-hemisuccinate sodium salt]
> 46 | CCC/1=N/N(CCCN2CCN(CC2)C3=CC(=CC=C3)Cl)C(=O)N1CCOC4=CC=CC=C4 [Nefazodone hydrochloride]
> 46 | CO[C@@]1(NC(=O)Cc2cccs2)C(=O)N2C(C(=O)O)=C(COC(N)=O)CS[C@@H]21 [Cefoxitin sodium salt]
> 46 | Cn1cc(O)nc1NC(=O)Nc1cccc(Cl)c1 [FENOBAMUM]
> 46 | Cc1c(C(N)=O)cc([N+](=O)[O-])cc1[N+](=O)[O-] [DINITOLMIDE]
> 46 | O=C(O)c1cc(O)c(O)c(O)c1 [Gallic acid]
> 46 | COc1cc(N[S+](C)(=O)[O-])ccc1Nc1c2ccccc2nc2ccccc12.Cl [Amsacrine hydrochloride]
> 46 | Cc1nnc(N[S+](=O)([O-])c2ccc(N)cc2)s1 [Sulfamethizole]
> 46 | CCC(=O)O[C@]1([C@@H](C)C[C@H]2[C@H]3C[C@@H](F)\C4=C\C(=O)\C=C/[C@@]4(C)[C@@]3(F)[C@@H](O)C[C@]12C)C(=O)SCF [Fluticasone propionate]
> 46 | O=C(/C=C/c1ccccc1)NCCO [Idrocilamida]
> 46 | CC1(C)\N=C(N)/N=C(/N)N1C2=CC=C(Cl)C=C2 [Cycloguanil HCl]

Compound | IC50 of cell viability [µM]
CCCCC(CC)COC(=O)c1ccccc1C(=O)O (stereo not drawn) [Mono(2-ethylhexyl) phthalate] | > 46
[H][C@]1(\C=C(/Cl)Cl)[C@]([H])(C(=O)OCC2=C(F)C(F)=CC(F)=C2F)C1(C)C [TRANSFLUTHRIN] | > 46
O=CC=O [Glyoxal] | > 46
CN1[C@@H]2CC[C@H]1CC(OC(=O)C(CO)c1ccccc1)C2 (stereo partly drawn) [Atropine] | > 46
CC1O[C@@H](CC(O)[C@H]1O[C@H]2CC(O)[C@@H](O[C@H]3CC(OC(C)=O)[C@H](O[C@H]4OC(CO)C(O)C(O)C4O)[C@@H](C)O3)C(C)O2)OC5CC[C@]6(C)C(CCC7C6CC(O)[C@@]8(C)C(CC[C@@]78O)\C9=C\C(=O)OC9)C5 (stereo partly drawn) [LANATOSIDE C] | > 46
ClC(Cl)(Cl)Cl [Carbon tetrachloride] | > 46
CCOC(=O)NC(O)C(Cl)(Cl)Cl (stereo not drawn) [Carbocloral] | > 46
C[C@H]1[C@@H]2CC[C@]/3(C)\C=C/C(=O)/C(=C3[C@H]2OC1=O)C [alpha-Santonin] | > 46
CCOC(=O)c1ccccc1C(=O)OCC [Diethyl phthalate] | > 46
Cc1ccc(-c2nc3ccc(C)cn3c2CC(=O)N(C)C)cc1 [ZOLPIDEM] | > 46
Nc1ccc(Sc2ccc(N)cc2)cc1 [4,4'-Thiodianiline] | > 46
Nc1ccc([N+](=O)[O-])cc1 [4-Nitroaniline] | > 46
OC1\N=C(C2=CC=CC=C2)/C3=CC(=CC=C3NC1=O)Cl (stereo not drawn) [(?)-Oxazepam] | > 46
CCN(CC)CCOC(=O)C(O)(c1ccccc1)c1ccccc1 [BENACTYZINUM] | > 46
Cc1cc2c(C(C)C)c(O)c(O)c(C=O)c2c(O)c1-c1c(C)cc2c(C(C)C)c(O)c(O)c(C=O)c2c1O [Gossypol] | > 46
C[C@H]1[C@@H]2Cc3ccc(O)cc3[C@]1(C)CCN2CCc1ccccc1 [(+)-Phenazocine] | > 46
